According to article PMC6318807 (ACS chemical neuroscience, 2018):

Target: EP2 receptor (Homo sapiens, UniProt P43116)
Experiment: TR-FRET cAMP
Type: cell-based

EP2 receptor, sequence (P43116 whole entry): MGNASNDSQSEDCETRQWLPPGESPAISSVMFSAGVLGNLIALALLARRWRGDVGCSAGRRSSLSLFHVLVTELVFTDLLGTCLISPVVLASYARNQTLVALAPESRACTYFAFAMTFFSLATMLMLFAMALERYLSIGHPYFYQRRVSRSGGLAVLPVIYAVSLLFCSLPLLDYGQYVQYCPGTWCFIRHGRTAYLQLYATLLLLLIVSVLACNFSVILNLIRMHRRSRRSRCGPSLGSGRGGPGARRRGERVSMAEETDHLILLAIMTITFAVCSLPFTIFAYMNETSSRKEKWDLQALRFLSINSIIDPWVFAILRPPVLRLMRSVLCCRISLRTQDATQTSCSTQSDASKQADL

O=C(Nc1cccc(Cl)c1N1CCCCC1)c1ccc2c(c1)OCCO2 [CID1254488]
TR-FRET cAMP; fold leftward shift of PGE2 EC50 at 20 μM compound: 2.5 fold shift of PGE2 EC50 at 20 μM

COc1ccc(-c2cc(C(F)(F)F)nc(N3CCOCC3)n2)cc1OC [CID2992168, 4-[4-(3,4-dimethoxyphenyl)-6 (trifluoromethyl)pyrimidin-2-yl]morpholine]
TR-FRET cAMP; fold leftward shift of PGE2 EC50 at 20 μM compound: 2.7 fold shift of PGE2 EC50 at 20 μM

CC1CCN(c2ccccc2NC(=O)c2ccc(F)cc2)CC1 [CID953673, 4-fluoro-N-(2-(4-methylpiperidin-1-yl)phenyl)benzamide]
TR-FRET cAMP; fold leftward shift of PGE2 EC50 at 20 μM compound: 2.5 fold shift of PGE2 EC50 at 20 μM

FC(F)(F)c1cc(-c2ccccc2)nc(N2CCOCC2)n1 [CID891729, 4-[4-phenyl-6-(trifluoromethyl)pyrimidin-2-yl]morpholine]
TR-FRET cAMP; fold leftward shift of PGE2 EC50 at 20 μM compound: 2.4 fold shift of PGE2 EC50 at 20 μM

CC(C)Sc1cc(N2CCOCC2)nc(-c2ccccc2)n1 [CID852313]
TR-FRET cAMP; fold leftward shift of PGE2 EC50 at 20 μM compound: 2.4 fold shift of PGE2 EC50 at 20 μM

CC(C)Sc1cc(N2CCOCC2)nc(-c2ccc(Cl)cc2)n1 [CID852308]
TR-FRET cAMP; fold leftward shift of PGE2 EC50 at 20 μM compound: 2.4 fold shift of PGE2 EC50 at 20 μM

O=C(Nc1ccccc1N1CCCCC1)c1ccc(F)cc1 [CID890517, 4-fluoro-N-(2-piperidin-1-ylphenyl)benzamide]
TR-FRET cAMP; fold leftward shift of PGE2 EC50 at 20 μM compound: 4.3 fold shift of PGE2 EC50 at 20 μM

Cc1ccccc1C(=O)Nc1ccccc1N1CCCCC1 [CID2340325, 2-methyl-N-(2-piperidin-1-ylphenyl)benzamide]
TR-FRET cAMP; fold leftward shift of PGE2 EC50 at 20 μM compound: 3.3 fold shift of PGE2 EC50 at 20 μM
